{"source": "patent US10736841B2", "about": "“Bepotastine compositions” (BAUSCH & LOMB INCORPORATED, priority 2011, dated 2020)", "key": {"[1]": {"experiment": "Chemical stability studies at 25° C. and 40° C. in amber glass bottles", "assay_type": "physicochemical", "description": "Chemical stability studies were performed to determine if the formulation would likely achieve a commercially practical shelf-life. Studies were performed at 25° C. and 40° C. in moisture impermeable amber glass bottles."}, "microorganisms": {"test_system": "microorganisms", "experiment": "USP 51 Preservative Efficacy Test (overall outcome)", "assay_type": "cell-based", "details": "BAK at a concentration of 0.200 mg/mL", "text": "The term “preservative efficacy” or “preservative effectiveness” or “antimicrobial efficacy”, as used herein, means that the composition satisfies USP standards as defined in protocol <51> p. 1681, United States Pharmacopeia, 1995: Antimicrobial effectiveness testing; The United States Pharmacopeia, 32nd rev ed., and the National Formulary, 27th ed. Rockville, Md.: USPC; 2009. For example, the preservative is effective in the product examined if (a) the concentrations of viable bacteria are reduced to not more than 0.1% of the initial concentrations by the fourteenth day; (b) the concentrations of viable yeasts and molds remain at or below the initial concentrations during the first 14 days; and (c) the concentration of each test microorganism remains at or below these designated levels during the remainder of the 28-day test period. Similar criteria are defined for BP standards (Efficacy of Antimicrobial Preservation, Appendix XVI C, 1995), and PhEur standards (Efficacy of Antimicrobial Preservation, Chapter VIII. 14, 1992).\nThe compositions provided herein may include an effective amount of an antimicrobial preservative. Preservatives can be used to inhibit microbial growth (e.g., bacterial or yeast) in the compositions. An “effective amount” of a preservative is that amount necessary to prevent the growth of microorganisms in the composition. […]"}, "[2]": {"details": "cited from earlier work"}, "[3]": {"experiment": "Drug substance description (solubility, hygroscopicity)", "assay_type": "physicochemical", "text": "Bepotastine besilate is a white to off-white, odorless, crystalline powder. The bepotastine drug substance physiological mode of action is inhibition of histamine H1 receptors to relieve typical symptoms associated with allergic rhinitis. […] Fluticasone propionate is a white to off-white, crystalline synthetic trifluorinated corticosteroid used to treat inflammatory symptoms related to asthma and allergic rhinitis."}}, "note": "Read-outs that look alike come from different tables or passages of the source.", "data": [{"compound": "O=C(O)CCCN1CCC(O[C@@H](c2ccc(Cl)cc2)c2ccccn2)CC1", "note": "[Bepotastine, (+)-(S)-4-[4-[(4-chlorophenyl)(2-pyridyl)methoxy]piperidino]butyric acid]", "values": [{"measurement": "impurities found during stability evaluation", "setting": "[1]", "result": "only impurity found was the ethyl ester precursor of bepotastine"}]}, {"compound": "benzalkonium chloride [BAK]", "values": [{"measurement": "effectiveness as preservative", "setting": "microorganisms", "result": "effective preservative"}]}, {"compound": "CCC(=O)O[C@]1(C(=O)SCF)[C@H](C)C[C@H]2[C@@H]3C[C@H](F)C4=CC(=O)C=C[C@]4(C)[C@@]3(F)[C@@H](O)C[C@@]21C", "note": "[fluticasone propionate, Fluticasone propionate]", "values": [{"measurement": "solubility in water", "setting": "[2]", "result": "practically insoluble"}, {"measurement": "solubility in water", "setting": "[2]; listed as fluticasone", "result": "insoluble"}]}, {"compound": "O=C(O)CCCN1CCC(O[C@@H](c2ccc(Cl)cc2)c2ccccn2)CC1.O=S(=O)(O)c1ccccc1", "note": "[Bepotastine besilate, (+)-(S)-4-[4-[(4-chlorophenyl)(2-pyridyl)methoxy]piperidino]butyric acid]", "values": [{"measurement": "hygroscopicity", "setting": "[3]; drug substance powder", "result": "non-hygroscopic"}, {"measurement": "dissolution in the nasal spray formulation vehicle", "setting": "[3]; nasal spray formulation vehicle", "result": "dissolves readily"}]}]}
